Test results published in patent publication US10087192B2, “2-(het)aryl-substituted fused bicyclic heterocycle derivatives as pesticides” (BAYER CROPSCIENCE AKTIENGESELLSCHSAFT, priority 2015, dated 2018).
Read-outs that look alike come from different tables or passages of the source.

Experiments:
[1] = log P by HPLC on reversed-phase column (EEC Directive 79/831 Annex V.A8); format: physicochemical; conditions: pH 7.8, 0.001 molar aqueous ammonium hydrogencarbonate/acetonitrile, 55° C., read-out: log P (neutral)
From the text: Called log P (neutral) in the table.

Lucilia cuprina = Lucilia cuprina test; format: in vivo; conditions: 100 ppm, after 2 days, L1 larvae
Protocol: (§1) Solvent: dimethyl sulphoxide
(§2) To produce a suitable preparation of active compound, 10 mg of active compound are mixed with 0.5 ml of dimethyl sulphoxide, and the concentrate is diluted with water to the desired concentration.
About 20 L1 larvae of the Australian sheep blowfly (Lucilia cuprina) are transferred into a test vessel containing minced horsemeat and the active compound preparation of the desired concentration.
After 2 days, the kill in % is determined. 100% means that all the larvae have been killed; 0% means that no larvae have been killed.

Myzus persicae [2] = experiment: Myzus persicae spray test (bell pepper plants); format: in vivo; conditions: 100 ppm, after 6 days
Protocol: Myzus persicae Spray Test Solvent: 7 parts by weight of dimethylformamide Emulsifier: alkylaryl polyglycol ether […] To produce further test concentrations, the preparation is diluted with emulsifier-containing water. If the addition of ammonium salts or/and penetrants is required, these are each added in a concentration of 1000 ppm to the formulation solution. Bell pepper plants (Capsicum annuum) severely infested with the green peach aphid (Myzus persicae) are treated by spraying with the active compound preparation in the desired concentration.

Ctenocephalides felis [3] = experiment: Ctenocephalides felis oral test; format: in vivo; conditions: 100 ppm in citrated cattle blood, after 2 days
From the text: Ctenocephalides felis—Oral Test Solvent: dimethyl sulphoxide […] Dilution with citrated cattle blood gives the desired concentration. About 20 unfed adult cat fleas (Ctenocephalides felis) are placed into a chamber which is closed at the top and bottom with gauze. A metal cylinder whose bottom end is closed with parafilm is placed onto the chamber. The cylinder contains the blood/active compound preparation, which can be imbibed by the fleas through the parafilm membrane.

Tetranychus urticae = Tetranychus urticae spray test, OP-resistant; format: in vivo; conditions: after 6 days, bean leaf discs
Protocol: Tetranychus urticae—Spray Test, OP-Resistant
(§3) Solvent: 78.0 parts by weight of acetone • • 1.5 parts by weight of dimethylformamide
(§4) Emulsifier: alkylaryl polyglycol ether
(§5) To produce a suitable preparation of active compound, 1 part by weight of active compound is dissolved using the stated parts by weight of solvent and made up with water containing an emulsifier concentration of 1000 ppm until the desired concentration is attained. To produce further test concentrations, the preparation is diluted with emulsifier-containing water.
Discs of bean leaves (Phaseolus vulgaris) infested with all stages of the greenhouse red spider mite (Tetranychus urticae) are sprayed with an active compound preparation of the desired concentration.
After 6 days, the efficacy in % is determined. 100% means that all the spider mites have been killed; 0% means that no spider mites have been killed.

Boophilus microplus = Boophilus microplus injection test; format: in vivo; conditions: 20 μg/animal, assessed after 7 days
Protocol: Boophilus microplus—Injection Test
as §1
To produce a suitable preparation of active compound, 10 mg of active compound are mixed with 0.5 ml of solvent and the concentrate is diluted with solvent to the desired concentration.
1 μl of the active compound solution is injected into the abdomen of 5 engorged adult female cattle ticks (Boophilus microplus). The animals are transferred into dishes and kept in a climate-controlled room.
Efficacy is assessed after 7 days by laying of fertile eggs. Eggs which are not visibly fertile are stored in a climate-controlled cabinet until the larvae hatch after about 42 days. An efficacy of 100% means that none of the ticks has laid any fertile eggs; 0% means that all the eggs are fertile.

Phaedon cochleariae = Phaedon cochleariae spray test; format: in vivo; conditions: 500 g/ha, after 7 days, larvae on Chinese cabbage leaf discs
Protocol: Phaedon cochleariae—Spray Test
as §3, §4, §5
After 7 days, the efficacy in % is determined. 100% means that all the beetle larvae have been killed; 0% means that no beetle larvae have been killed.

Myzus persicae [4] = experiment: Myzus persicae spray test (Chinese cabbage leaf discs); format: in vivo; conditions: 500 g/ha, after 6 days
Protocol: Myzus persicae—Spray Test Solvent: 78 parts by weight of acetone • • 1.5 parts by weight of dimethylformamide Emulsifier: alkylaryl polyglycol ether […] To produce further test concentrations, the preparation is diluted with emulsifier-containing water. Discs of Chinese cabbage leaves (Brassica pekinensis) infested by all stages of the green peach aphid (Myzus persicae) are sprayed with an active compound preparation of the desired concentration.

Ctenocephalides felis [5] = experiment: Ctenocephalides felis in vitro contact test with adult cat fleas; format: in vivo; conditions: 5 μg/cm^2 (500 g/ha), after 48 h
Protocol: Ctenocephalides felis—In Vitro Contact Tests with Adult Cat Fleas
For the coating of the test tubes, 9 mg of active compound are first dissolved in 1 ml of acetone p.a. and then diluted to the desired concentration with acetone p.a. 250 μl of the solution are distributed homogeneously on the inner walls and the base of a 25 ml test tube by turning and rocking on an orbital shaker (rocking rotation at 30 rpm for 2 h). With 900 ppm active compound solution and internal surface 44.7 cm^2, given homogeneous distribution, an area-based dose of 5 μg/cm^2 is achieved.
After the solvent has evaporated off, the tubes are populated with 5-10 adult cat fleas (Ctenocephalides felis), sealed with a perforated plastic lid and incubated in a horizontal position at room temperature and ambient humidity. After 48 h, efficacy is determined. To this end, the test tubes are stood upright and the fleas are knocked to the base of the tube. Fleas which remain motionless at the base or move in an uncoordinated manner are considered to be dead or moribund.
100% efficacy means that all the fleas were dead or moribund. 0% efficacy means that no fleas were harmed.

Spodoptera frugiperda = Spodoptera frugiperda spray test (maize leaf discs); format: in vivo; conditions: 500 g/ha, after 7 days, caterpillars on maize leaf discs
Protocol: Spodoptera frugiperda—Spray Test Solvent: 78.0 parts by weight of acetone • • 1.5 parts by weight of dimethylformamide Emulsifier: alkylaryl polyglycol ether […] To produce further test concentrations, the preparation is diluted with emulsifier-containing water. Leaf discs of maize (Zea mays) are sprayed with an active compound preparation of the desired concentration and, after drying, populated with caterpillars of the armyworm (Spodoptera frugiperda).

Musca domestica = Musca domestica test; format: in vivo; conditions: after 2 days, adult houseflies
Protocol: as §1, §2
Vessels containing a sponge treated with sugar solution and the active compound preparation of the desired concentration are populated with 10 adult houseflies (Musca domestica).
After 2 days, the kill in % is determined. 100% means that all of the flies have been killed; 0% means that none of the flies have been killed.

Meloidogyne incognita = Meloidogyne incognita test; format: in vivo; conditions: 20 ppm, after 14 days, lettuce
Protocol: Meloidogyne incognita Test
Solvent: 125.0 parts by weight of acetone
To produce a suitable preparation of active compound, 1 part by weight of active compound is mixed with the stated amount of solvent and the concentrate is diluted with water to the desired concentration.
Vessels are filled with sand, active compound solution, an egg/larvae suspension of the southern root-knot nematode (Meloidogyne incognita) and lettuce seeds. The lettuce seeds germinate and the plants develop. The galls develop on the roots.
After 14 days, the nematicidal efficacy in % is determined by the formation of galls. 100% means that no galls were found; 0% means that the number of galls on the treated plants corresponds to the untreated control.

[6] = reversed-phase HPLC column (C18)

SMILES	efficacy (kill) (Lucilia cuprina) [%]	efficacy (kill) (Ctenocephalides felis [3]) [%]	efficacy (laying of fertile eggs) (Boophilus microplus) [%]	efficacy (Phaedon cochleariae) [%]	efficacy (Myzus persicae [4]) [%]	efficacy (Spodoptera frugiperda) [%]	other results
Cn1c(-c2nc(Cl)ccc2Cl)nc2cc(C(F)(F)F)ncc21 [2-(3,6-Dichloro-2-pyridyl)-3-methyl-6-(trifluoromethyl)imidazo[4,5-c]pyridine]							chromatographic logP [1]: 2.81
CCSc1ccc(Cl)nc1-c1nc2cc(C(F)(F)F)ncc2n1C [2-(6-Chloro-3-ethylsulphanyl-2-pyridyl)-3-methyl-6-(trifluoromethyl)imidazo[4,5-c]pyridine]							chromatographic logP [1, 6]: 3.06
CCS(=O)(=O)c1ccc(Cl)nc1-c1nc2cc(C(F)(F)F)ncc2n1C [2-(6-Chloro-3-ethylsulphonyl-2-pyridyl)-3-methyl-6-(trifluoromethyl)imidazo[4,5-c]pyridine]							chromatographic logP [1, 6]: 2.54
CCS(=O)(=O)c1ccc(N2CCOCC2)nc1-c1nc2cc(C(F)(F)F)ncc2n1C [Example 1]	90	98					efficacy (kill) (Myzus persicae [2]): 95%
CCS(=O)(=O)c1ccc(-n2cnc(S(C)(=O)=O)n2)nc1-c1nc2cc(C(F)(F)F)ncc2n1C [Example 5]			90	100	90		efficacy (Tetranychus urticae; 500 g/ha): 90%
CCS(=O)(=O)c1ccc(-n2ccc(C(F)F)n2)nc1-c1nc2cc(C(F)(F)F)ncc2n1C [Example 8]	100	95	95	100	100	100	efficacy (Ctenocephalides felis [5]): 100%; efficacy (kill) (Musca domestica; 100 ppm): 100%
CCS(=O)(=O)c1ccc(-n2cnc(NC(C)=O)n2)nc1-c1nc2cc(C(F)(F)F)ncc2n1C [Example 11]	100	100		100			efficacy (Ctenocephalides felis [5]): 100%; efficacy (kill) (Myzus persicae [2]): 100%
CCS(=O)(=O)c1ccc(-n2cnc(Cl)n2)nc1-c1nc2cc(C(F)(F)F)ncc2n1C [Example 18]	100	100		100	100		efficacy (Ctenocephalides felis [5]): 100%; efficacy (kill) (Musca domestica; 20 ppm): 100%
CCS(=O)(=O)c1ccc(-c2ccsc2)nc1-c1nc2cc(C(F)(F)F)ncc2n1C [Example 20, 2-[3-Ethylsulphonyl-6-(3-thienyl)-2-pyridyl]-3-methyl-6-(trifluoromethyl)imidazo[4,5-c]pyridine]	100						chromatographic logP [1, 6]: 3.13
CCS(=O)(=O)c1ccc(-n2ccc(C#N)n2)nc1-c1nc2cc(C(F)(F)F)ncc2n1C [Example 22]	100	100	80	100		100	efficacy (kill) (Musca domestica; 100 ppm): 80%
CCS(=O)(=O)c1ccc(-n2cc(C(F)(F)F)nn2)nc1-c1nc2cc(C(F)(F)F)ncc2n1C [Example 24]	100		80			100	efficacy (kill) (Musca domestica; 100 ppm): 80%
CCS(=O)(=O)c1ccc(-n2cc(C(F)(F)F)cn2)nc1-c1nc2cc(C(F)(F)F)ncc2n1C [Example 26, 2-[3-Ethylsulphonyl-6-[4-(trifluoromethyl)pyrazol-1-yl]-2-pyridyl]-3-methyl-6-(trifluoromethyl)-imidazo[4,5-c]pyridine]	100			100		100	chromatographic logP [1, 6]: 3.34; efficacy (kill) (Musca domestica; 100 ppm): 90%
CCS(=O)(=O)c1ccc(-n2ccnc2)nc1-c1nc2cc(C(F)(F)F)ncc2n1C [Example 33]		100	80	100	90		efficacy (Tetranychus urticae; 500 g/ha): 90%; efficacy (Ctenocephalides felis [5]): 100%
CCS(=O)(=O)c1ccc(-n2cc(Cl)cn2)nc1-c1nc2cc(C(F)(F)F)ncc2n1C [Example 36]	100	100	90	100		100	efficacy (kill) (Musca domestica; 100 ppm): 85%
CCS(=O)(=O)c1ccc(-n2ccc(CS(C)(=O)=O)n2)nc1-c1nc2cc(C(F)(F)F)ncc2n1C [Example 40]				100	90		efficacy (Tetranychus urticae; 500 g/ha): 90%
CCS(=O)(=O)c1ccc(-n2ccc(C[S+](C)[O-])n2)nc1-c1nc2cc(C(F)(F)F)ncc2n1C (stereo not shown) [Example 49]				100	90		efficacy (Tetranychus urticae; 500 g/ha): 90%
CCS(=O)(=O)c1ccc(-n2cc(F)cn2)nc1-c1nc2cc(C(F)(F)C(F)(F)F)ncc2n1C [Example 59]	100	100	90	100		100	efficacy (kill) (Musca domestica; 100 ppm): 95%
CCS(=O)(=O)c1ccc(-c2ccncc2)nc1-c1nc2cc(C(F)(F)F)ncc2n1C [Example 78]				100			efficacy (Tetranychus urticae; 100 g/ha): 90%
CCS(=O)(=O)c1ccc(-c2cccs2)nc1-c1nc2cc(C(F)(F)F)ncc2n1C [Example 79]							efficacy (Tetranychus urticae; 100 g/ha): 90%
CCS(=O)(=O)c1ccc(-c2ccco2)nc1-c1nc2cc(C(F)(F)F)ncc2n1C [Example 80]							efficacy (Tetranychus urticae; 500 g/ha): 90%
CCS(=O)(=O)c1ccc(-c2cnc(Cl)n2C)nc1-c1nc2cc(C(F)(F)F)ncc2n1C [Example 81]				100	90	83	nematicidal efficacy (formation of galls) (Meloidogyne incognita): 100%
CNc1cnc(C(F)(F)C(F)(F)F)cc1N [II-1, N3-Methyl-6-(1,1,2,2,2-pentafluoroethyl)pyridine-3,4-diamine]							chromatographic logP [1, 6]: 1.68
